In patent publication US20220323406A1, “METHODS AND COMPOSITIONS FOR DIFFERENTIATING STEM CELLS” (Massachusetts Institute of Technology, priority 2019, published 2022):

Legend:
Conditions in all cases: primary screen
[1] = tested on: ENR+CD organoids (ISC to Paneth cell differentiation); test: Primary screen: CCh-stimulated lysozyme secretion LYZ.S, 2.5-D 384-well ENR+CD organoid differentiation; format: cell-based, mouse
From the text: (§1) High-throughput screening.

[2] = tested on: ENR+CD organoids (ISC to Paneth cell differentiation); test: Primary screen: basal (non-stimulated) lysozyme secretion LYZ.NS, 2.5-D 384-well ENR+CD organoid differentiation; format: cell-based, mouse
From the text: as §1

ENR+CD organoids = test: Primary screen: ATP (CellTiter-Glo 3D, CTG) cell number/viability, 2.5-D 384-well ENR+CD organoids;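 note: compounds given at plating and again on day 3 over a 6-day differentiation from ENR+CV stem-cell-enriched precursors, ATP measured on day 6, plate median as control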
[3] = 1st dose row of the treatment (0.08 uM by row order; dose not reprinted)
[4] = 2nd dose row of the treatment (0.40 uM by row order; dose not reprinted)
[5] = 3rd dose row of the treatment (2.00 uM by row order; dose not reprinted)
[6] = 4th dose row of the treatment (10.00 uM by row order; dose not reprinted)

SMILES | SSMD.LYZ.S_Rep (strictly standardized mean difference) [1, 3] | Z.LYZ.S (standard z score) [1, 3] | SSMD.LYZ.S_Rep (strictly standardized mean difference) [1, 4] | Z.LYZ.S (standard z score) [1, 4] | SSMD.LYZ.S_Rep (strictly standardized mean difference) [1, 5] | Z.LYZ.S (standard z score) [1, 5] | SSMD.LYZ.S_Rep (strictly standardized mean difference) [1, 6] | Z.LYZ.S (standard z score) [1, 6] | Dose.FC.LYZ.S ([1]; dose 0.08 uM) [log2 fold change] | Dose.FC.LYZ.S ([1]; dose 0.40 uM) [log2 fold change] | Dose.FC.LYZ.S ([1]; dose 2.00 uM) [log2 fold change] | Dose.FC.LYZ.S ([1]; dose 10.00 uM) [log2 fold change] | SSMD.LYZ.NS_Rep (strictly standardized mean difference) [2, 3] | SSMD.LYZ.NS_Rep (strictly standardized mean difference) [2, 4] | SSMD.LYZ.NS_Rep (strictly standardized mean difference) [2, 5] | SSMD.LYZ.NS_Rep (strictly standardized mean difference) [2, 6] | Dose.FC.LYZ.NS ([2]; dose 0.08 uM) [log2 fold change] | Z.LYZ.NS (standard z score) ([2]; dose 0.08 uM) | Dose.FC.LYZ.NS ([2]; dose 0.40 uM) [log2 fold change] | Z.LYZ.NS (standard z score) ([2]; dose 0.40 uM) | further results
COc1cc2c(cc1O)CC[C@@H]1[C@@H]2CC[C@]2(C)[C@@H](O)CC[C@@H]12 [2-Methoxyestradiol (2-MeOE2)] | 1.015 | 1.224 | 0.831 | 1.747 | 0.144 | 0.190 | −1.135 | −1.795 | 0.189 | 0.270 | 0.029 | −0.278 | 0.077 | 0.227 | 0.049 | −0.826 | 0.021 | 0.186 | 0.065 | 0.566 | Dose.FC.LYZ.NS ([2]; dose 2.00 uM): 0.005 log2 fold change; Z.LYZ.NS (standard z score) ([2]; dose 2.00 uM): 0.041; Dose.FC.LYZ.NS ([2]; dose 10.00 uM): −0.139 log2 fold change; Z.LYZ.NS (standard z score) ([2]; dose 10.00 uM): −1.209; SSMD.CTG.Rep (strictly standardized mean difference) (ENR+CD organoids; [3]): 0.407; SSMD.CTG.Rep (strictly standardized mean difference) (ENR+CD organoids; [4]): 0.930; SSMD.CTG.Rep (strictly standardized mean difference) (ENR+CD organoids; [5]): 0.461; SSMD.CTG.Rep (strictly standardized mean difference) (ENR+CD organoids; [6]): −0.878; Dose.FC.CTG (ENR+CD organoids; dose 0.08 uM): 0.299 log2 fold change; Z.CTG (standard z score) (ENR+CD organoids; dose 0.08 uM): 0.714; Dose.FC.CTG (ENR+CD organoids; dose 0.40 uM): 0.401 log2 fold change; Z.CTG (standard z score) (ENR+CD organoids; dose 0.40 uM): 0.957; Dose.FC.CTG (ENR+CD organoids; dose 2.00 uM): 0.227 log2 fold change; Z.CTG (standard z score) (ENR+CD organoids; dose 2.00 uM): 0.543; Dose.FC.CTG (ENR+CD organoids; dose 10.00 uM): −0.672 log2 fold change; Z.CTG (standard z score) (ENR+CD organoids; dose 10.00 uM): −1.606
CC(C)N(CC[C@H](c1ccccc1)c1cc(CO)ccc1O)C(C)C [4CE°8C] | 0.194 | 0.205 | 0.053 | 0.073 | −0.217 | −0.358 | −0.707 | −0.836 | 0.032 | 0.011 | −0.055 | −0.129 | 0.497 | 0.226 | 0.128 | −0.861 | 0.069 | 0.601 | 0.047 | 0.413 | Dose.FC.LYZ.NS ([2]; dose 2.00 uM): 0.016 log2 fold change; Z.LYZ.NS (standard z score) ([2]; dose 2.00 uM): 0.138; Dose.FC.LYZ.NS ([2]; dose 10.00 uM): −0.095 log2 fold change; Z.LYZ.NS (standard z score) ([2]; dose 10.00 uM): −0.827; SSMD.CTG.Rep (strictly standardized mean difference) (ENR+CD organoids; [3]): −0.402; SSMD.CTG.Rep (strictly standardized mean difference) (ENR+CD organoids; [4]): 0.023; SSMD.CTG.Rep (strictly standardized mean difference) (ENR+CD organoids; [5]): −0.340; SSMD.CTG.Rep (strictly standardized mean difference) (ENR+CD organoids; [6]): −0.109; Dose.FC.CTG (ENR+CD organoids; dose 0.08 uM): −0.111 log2 fold change; Z.CTG (standard z score) (ENR+CD organoids; dose 0.08 uM): −0.265; Dose.FC.CTG (ENR+CD organoids; dose 0.40 uM): 0.007 log2 fold change; Z.CTG (standard z score) (ENR+CD organoids; dose 0.40 uM): 0.018; Dose.FC.CTG (ENR+CD organoids; dose 2.00 uM): −0.162 log2 fold change; Z.CTG (standard z score) (ENR+CD organoids; dose 2.00 uM): −0.387; Dose.FC.CTG (ENR+CD organoids; dose 10.00 uM): −0.039 log2 fold change; Z.CTG (standard z score) (ENR+CD organoids; dose 10.00 uM): −0.094
O=C(O)c1ccc(N2C(=O)/C(=C\c3ccc(-c4ccc([N+](=O)[O-])cc4)o3)C=C2c2ccccc2)cc1 [4E1RCat] | 0.712 | 0.690 | 0.185 | 0.247 | 0.311 | 0.316 | 0.321 | 0.530 | 0.107 | 0.038 | 0.049 | 0.082 | 0.883 | −0.121 | 0.437 | 0.053 | 0.100 | 0.874 | −0.018 | −0.154 | Dose.FC.LYZ.NS ([2]; dose 2.00 uM): 0.151 log2 fold change; Z.LYZ.NS (standard z score) ([2]; dose 2.00 uM): 1.316; Dose.FC.LYZ.NS ([2]; dose 10.00 uM): 0.007 log2 fold change; Z.LYZ.NS (standard z score) ([2]; dose 10.00 uM): 0.062; SSMD.CTG.Rep (strictly standardized mean difference) (ENR+CD organoids; [3]): 0.790; SSMD.CTG.Rep (strictly standardized mean difference) (ENR+CD organoids; [4]): 0.559; SSMD.CTG.Rep (strictly standardized mean difference) (ENR+CD organoids; [5]): 0.022; SSMD.CTG.Rep (strictly standardized mean difference) (ENR+CD organoids; [6]): −0.026; Dose.FC.CTG (ENR+CD organoids; dose 0.08 uM): 0.246 log2 fold change; Z.CTG (standard z score) (ENR+CD organoids; dose 0.08 uM): 0.587; Dose.FC.CTG (ENR+CD organoids; dose 0.40 uM): 0.362 log2 fold change; Z.CTG (standard z score) (ENR+CD organoids; dose 0.40 uM): 0.864; Dose.FC.CTG (ENR+CD organoids; dose 2.00 uM): 0.006 log2 fold change; Z.CTG (standard z score) (ENR+CD organoids; dose 2.00 uM): 0.015; Dose.FC.CTG (ENR+CD organoids; dose 10.00 uM): −0.011 log2 fold change; Z.CTG (standard z score) (ENR+CD organoids; dose 10.00 uM): −0.026
CC(C)N(CC[C@H](c1ccccc1)c1cc(CO)ccc1O)C(C)C [5-hydroxymethyl Tolterodine (PNU 200577, 5-HMT, 5-HM)] | 0.460 | 0.417 | 0.266 | 0.231 | 0.174 | 0.152 | −0.042 | −0.044 | 0.065 | 0.036 | 0.023 | −0.007 | 0.915 | 0.760 | 0.947 | 0.223 | 0.184 | 1.599 | 0.076 | 0.665 | Dose.FC.LYZ.NS ([2]; dose 2.00 uM): 0.154 log2 fold change; Z.LYZ.NS (standard z score) ([2]; dose 2.00 uM): 1.344; Dose.FC.LYZ.NS ([2]; dose 10.00 uM): 0.034 log2 fold change; Z.LYZ.NS (standard z score) ([2]; dose 10.00 uM): 0.293; SSMD.CTG.Rep (strictly standardized mean difference) (ENR+CD organoids; [3]): −0.118; SSMD.CTG.Rep (strictly standardized mean difference) (ENR+CD organoids; [4]): 0.291; SSMD.CTG.Rep (strictly standardized mean difference) (ENR+CD organoids; [5]): 0.114; SSMD.CTG.Rep (strictly standardized mean difference) (ENR+CD organoids; [6]): 0.061; Dose.FC.CTG (ENR+CD organoids; dose 0.08 uM): −0.062 log2 fold change; Z.CTG (standard z score) (ENR+CD organoids; dose 0.08 uM): −0.149; Dose.FC.CTG (ENR+CD organoids; dose 0.40 uM): 0.087 log2 fold change; Z.CTG (standard z score) (ENR+CD organoids; dose 0.40 uM): 0.207; Dose.FC.CTG (ENR+CD organoids; dose 2.00 uM): 0.034 log2 fold change; Z.CTG (standard z score) (ENR+CD organoids; dose 2.00 uM): 0.082; Dose.FC.CTG (ENR+CD organoids; dose 10.00 uM): 0.017 log2 fold change; Z.CTG (standard z score) (ENR+CD organoids; dose 10.00 uM): 0.040
